Laboratory results reported in the supplement of paper PMC6045584.
± gives the standard deviation of the averaged measurements.

How the values were obtained:
[1] = compound: O=C(NOCC1CC1)c1ccc(F)c(F)c1Nc1ccc(I)cc1Cl; experiment: surviving fraction relative to DMSO-only wells; higher = less growth inhibition; settings: exposure time: 5 days
Procedure, shortened: (§1)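 Viability was determined by CellTiter-Glo luminescence, expressed as surviving fraction normalised to the median of DMSO-only wells. The cells were log-phase tumour cell lines seeded at 250–500 per well in 384-well plates and, after 24 hours, exposed continuously for five days to inhibitors at 0.5, 1, 5, 10, 50, 100, 500 and 1000 nM. Three screens per line were run, keeping only lines with replicate Pearson r >0.7 and median Z' >0.3.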

ERLOTINIB = compound: C#Cc1cccc(Nc2ncnc3cc(OCCOC)c(OCCOC)cc23)c1 [ERLOTINIB]; experiment: as above; settings: exposure time: 5 days
Procedure, shortened: as §1

MK0752 = compound: O=C(O)CC[C@H]1CC[C@@](c2cc(F)ccc2F)(S(=O)(=O)c2ccc(Cl)cc2)CC1 [MK0752]; experiment: area under dose-response curve of surviving fraction (unscaled, Aref=0) (surviving fraction x log10(nM)); higher = more resistant; settings: exposure time: 5 days; dose range 0.5-1000 nM
Procedure, shortened: (§2)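 Surviving fractions were fitted by 3-parameter logistic regression in the drc R package to give dose-response survival curves. They came from tumour cell lines treated for five days with eight inhibitor concentrations from 0.5 to 1000 nM and read by CellTiter-Glo luminescence against DMSO-only wells. The area under the curve is the unscaled activity area. It was calculated over log10 dose with Aref = 0.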

VINORELBINE = compound: CCC1=C[C@@H]2CN(C1)Cc1c([nH]c3ccccc13)[C@@](C(=O)OC)(c1cc3c(cc1OC)N(C)[C@H]1[C@@](O)(C(=O)OC)[C@H](OC(C)=O)[C@]4(CC)C=CCN5CC[C@]31[C@@H]54)C2 [VINORELBINE]; experiment: as above; settings: exposure time: 5 days; dose range 0.5-1000 nM
Procedure, shortened: as §2

PLX-4720 = compound: CCCS(=O)(=O)Nc1ccc(F)c(C(=O)c2c[nH]c3ncc(Cl)cc23)c1F [PLX-4720]; experiment: as above; settings: exposure time: 5 days; dose range 0.5-1000 nM
Procedure, shortened: as §2

GEMCITABINE = compound: Nc1ccn([C@@H]2O[C@H](CO)[C@@H](O)C2(F)F)c(=O)n1 [GEMCITABINE]; experiment: as above; settings: exposure time: 5 days; dose range 0.5-1000 nM
Procedure, shortened: as §2

Test System	surviving fraction ([1]; 0.5 nM)	surviving fraction ([1]; 1 nM)	surviving fraction ([1]; 5 nM)	surviving fraction ([1]; 10 nM)	surviving fraction ([1]; 50 nM)	surviving fraction ([1]; 100 nM)	surviving fraction ([1]; 500 nM)	surviving fraction ([1]; 1000 nM)	surviving fraction (ERLOTINIB; 0.5 nM)	surviving fraction (ERLOTINIB; 1 nM)	surviving fraction (ERLOTINIB; 5 nM)	surviving fraction (ERLOTINIB; 10 nM)	surviving fraction (ERLOTINIB; 50 nM)	surviving fraction (ERLOTINIB; 100 nM)	surviving fraction (ERLOTINIB; 500 nM)	surviving fraction (ERLOTINIB; 1000 nM)	area under dose-response curve (MK0752)	area under dose-response curve (VINORELBINE)	area under dose-response curve (PLX-4720)	area under dose-response curve (GEMCITABINE)
HCC1806 BREAST	1.04 ± 0.026	1.01 ± 0.098	1.09 ± 0.16	1.12 ± 0.079	1.1 ± 0.058	1.17 ± 0.048	0.761 ± 0.094	0.671 ± 0.022	1.04 ± 0.062	1.1 ± 0.067	1.13 ± 0.056	1.15 ± 0.061	1.2 ± 0.042	1.12 ± 0.037	0.656 ± 0.069	0.623 ± 0.025	3.93	1.33	2.86	0.258
CHLA90 AUTONOMIC GANGLIA	0.469 ± 0.022	0.987 ± 0.003	0.825 ± 0.05	0.894 ± 0.036	0.478 ± 0.044	0.763 ± 0.028	0.662 ± 0.044	0.69 ± 0.015	1.01 ± 0.059	0.963 ± 0.12		0.94 ± 0.041	0.984 ± 0.09	0.948 ± 0.079	0.856 ± 0.057	0.88 ± 0.036	3.36	1.69	2.66	1.39
OS25HAL BONE	0.951 ± 0.024	0.964 ± 0.02	0.931 ± 0.033	0.971 ± 0.025	0.955 ± 0.015	0.989 ± 0.012	0.943 ± 0.012	0.954 ± 0.024	0.997 ± 0.016	1.04 ± 0.048	1.02 ± 0.024		1.09 ± 0.063	1.17 ± 0.043	1.09 ± 0.027	1 ± 0.035	3.42	1.8	3.14	0.944
U2OS BONE	1.03 ± 0.016	1.03 ± 0.019	1.02 ± 0.036	1.07 ± 0.042	0.983 ± 0.026	0.996 ± 0.035	0.95 ± 0.03	0.876 ± 0.03	1.06 ± 0.016				1.11 ± 0.015	1.04 ± 0.028	1.02 ± 0.014		3.56	2.14	3.23	1.49
93VU HEADNECK	0.859 ± 0.026	0.873 ± 0.089	0.979 ± 0.061	0.828 ± 0.051	0.785 ± 0.074	0.751 ± 0.037	0.417 ± 0.036	0.311 ± 0.097	1.1 ± 0.058	1.04 ± 0.095	1.1 ± 0.067	1.04 ± 0.12	1.06 ± 0.051	0.97 ± 0.15	0.514 ± 0.066	0.416 ± 0.034	3.92	2.19	3.02	2
HCC38 BREAST	1.14 ± 0.17	1.11 ± 0.19	1.01 ± 0.11	1.14 ± 0.093	0.998 ± 0.2	1.03 ± 0.22	1.21 ± 0.29	1.07 ± 0.14	1.16 ± 0.22	1.22 ± 0.14	1.48 ± 0.025	1.29 ± 0.15	1.54 ± 0.15	1.17 ± 0.13	1.19 ± 0.2	1.1 ± 0.16	4.01	2.07	3.09	1.01
COLO320DM LARGE INTESTINE	0.544 ± 0.018	1.09 ± 0.032	0.98 ± 0.094	1.09 ± 0.094	0.747 ± 0.053	1.15 ± 0.029	1.11 ± 0.063	1.15 ± 0.043	1.17 ± 0.18	0.993 ± 0.074	1.06 ± 0.094	1.09 ± 0.12	1.155 ± 0.011	1.02 ± 0.078	1.04 ± 0.039	0.99 ± 0.032	3.87	3.2	3.03	1.53
SYO1 SYNOVIAL	0.469 ± 0.17	0.941 ± 0.093	0.833 ± 0.065	0.888 ± 0.034	0.542 ± 0.11	0.885 ± 0.023	0.784 ± 0.058	0.8681 ± 0.0032	1.02 ± 0.016	1.04 ± 0.034	1.03 ± 0.017	0.986 ± 0.067	1.01 ± 0.023	1.01 ± 0.015	1.02 ± 0.028		3.26	1.3	2.17	0.79
VCAP PROSTATE	0.925 ± 0.048	0.984 ± 0.082	0.923 ± 0.042	1.01 ± 0.12	0.86 ± 0.079	1.08 ± 0.068	1.05 ± 0.13	0.975 ± 0.0027	1 ± 0.042	0.988 ± 0.16	1.17 ± 0.089	1.15 ± 0.057	1.13 ± 0.093	1.08 ± 0.084	1.11 ± 0.05	1.09 ± 0.093	3.78	1.32	3.22	1.1
MDAMB453 BREAST	0.958 ± 0.033	1.02 ± 0.062	1.02 ± 0.072	0.992 ± 0.046	1.03 ± 0.094	1.05 ± 0.028	1.02 ± 0.06	1.06 ± 0.03	1.11 ± 0.065	1.05 ± 0.029	1.11 ± 0.057	1.088 ± 0.0092	1.09 ± 0.065	1.06 ± 0.022		1.01 ± 0.026	3.54	1.31	3.35	1.47
HELA CERVIX	0.961 ± 0.057	1.01 ± 0.09	0.97 ± 0.07	0.964 ± 0.08	1.02 ± 0.012	1.08 ± 0.055	1.09 ± 0.077	1.12 ± 0.025	1.06 ± 0.057	1.08 ± 0.045	1.04 ± 0.089	1.05 ± 0.04	1.17 ± 0.054	1.18 ± 0.028	1.25 ± 0.035	1.15 ± 0.021	3.42	1.64	3.26	1.75
LM7 BONE	0.983 ± 0.049	1.01 ± 0.041	1.1 ± 0.12	1 ± 0.024	1.02 ± 0.073	0.943 ± 0.1	0.821 ± 0.011	0.853 ± 0.089	1.09 ± 0.1	0.989 ± 0.043	1.2 ± 0.043	1.06 ± 0.051	1.23 ± 0.061	1.15 ± 0.098	0.932 ± 0.058		3.27	1.45	2.76	1.12
HCT15 LARGE INTESTINE	0.526 ± 0.042	0.912 ± 0.023	0.849 ± 0.05	0.936 ± 0.066	0.608 ± 0.037	0.914 ± 0.039	0.784 ± 0.0076	0.823 ± 0.05	1.06 ± 0.12	1 ± 0.15	0.979 ± 0.17	0.977 ± 0.078	1.1 ± 0.038	1.11 ± 0.039	1.1 ± 0.044		3.61	2.64	2.63	1.15
